In patent US7169781B2, “Imidazole derivatives and their use as pharmaceutical agents” (Hoffmann-La Roche Inc., priority 2003, dated 2007):

Columns and labels:
[1] = target: T1, c-met (Homo sapiens, UniProt P08581); experiment: C-met-Inhibitor-Assay (ELISA type assay measuring phosphorylation of c-met from HT29 cell lysate); type: biochemical; details: ATP final conc. 40 μM, 60 min at room temperature
T1 construct: Cell lysate of human colon adenocarcinoma HT29 known for its high content of c-met; endogenous in cells; host or cells: HT29 (ATCC HTB-38), human colon adenocarcinoma
Text: C-met-Inhibitor-Assay: Assay Principle
C-met is a typical tyrosine kinase which is involved in metastasis, proliferation/apoptosis and angiogenesis of tumors. The assay is an ELISA type assay measuring the phosphorylation of c-met using a phospho-tyrosine specific antibody.
Cell lysate of human colon adenocarcinoma HT29 known for its high content of c-met is bound to the wells of a microtiterplate (MTP) via an anti-hHGF receptor antibody (anti-hHGFR). ATP-phosphorylation of c-met is detected in presence or absence of the test compounds by using a phospho-tyrosine mouse IgG and a POD labeled goat anti-mouse IgG detection system. Using the classical POD substrate TMB, an absorption at 450 nm/620 nm is used to calculate enzymatic activity.
Plates: 96-well polystyrene plates (NUNC) streptavidin-coated microtiter plates Cell line/Lysate: HT29 (ATCC HTB-38), human colon adenocarcinoma (confluence: 2.5×10^5 cells/cm^2) are washed with PBS and incubated with Lysis buffer for 10 min on ice. Supernatent is collected and diluted with TBS. Lysate is shockfrozen in liquid nitrogen and stored at −80° C.)
Reagents (all working solutions are kept at 4° C., unless stated otherwise): • anti-hHGFR detection stock solution: 50 μg/ml (R&D Systems, Cat.No. BAF 358) antibody final conc.: 1 μg/ml • p-Tyr (PY99) mouse stock solution: 200 μg/ml (Santa Cruz Biotechnology, monoclonal IgG2b Cat.No. SC-7020) final conc.: 0.2 μg/ml • goat-anti-mouse IgG: 2 ml (BIO RAD, Cat.No. 170-6516) • (H+L)-HRP Conjugate; final conc.: 1:2000 • Blocking Reagent: Roche Diagnostics GmbH, Cat.No.1112589 for ELISA diluted 1:10 in TBS • ATP: Adenosine-5′-triphosphate, stock solution 10 mM, stock solution 10 mM (Roche • Diagnostics GmbH, Cat.No. 127531) final conc.: 40 μM • TBS: Tris-buffered saline, 50 mM TRIS pH 7.5 (Roche Diagnostics GmbH, Cat.No. 708976), 150 mM NaCl (SIGMA, Cat.No. S-3014) • Wash buffer TBS-T: Tris-buffered saline, 50 mM TRIS pH 7.5 150 mM NaCl, containing 0.5% Tween20 • Kinase buffer: Tris-buffered saline, 50 mM TRIS pH 7.5, 100 mM NaCl, 60 mM MgCl2 (SIGMA Chemical Company, Cat.No. M-1028) • Lysis buffer: 50 mM TRIS pH 7.5 containing 1% Nonidet P40 (Roche Diagnostics GmbH, Cat.No.1754599) 0.5% Deoxycholic acid (SIGMA Chemical Company, Cat.No. D-6750) • final conc.: 1 mM 1 mM PMSF stock solution 70 mM (Roche Diagnostics GmbH, • Cat.No.837091 40 μl/ml Complete (Roche Diagnostics GmbH, Cat.No. 1836145) Final conc.: 40 μl/ml • TMB: Tetramethylbenzidine (Intergen Company, Cat.No. 91000) • Samples: 10 mM in DMSO (stored at −20° C.), thawed at room temperature
Procedure: • Add 50 μl of anti-hHGFR detection antibody in blocking reagent to assay plate (final conc. 1 μg/ml), incubate assay plate for 60 min at room temperature on an MTP shaker. • Remove anti-hHGFR detection antibody solution from assay plate. • Add 250 μl blocking reagent per well to assay plate, incubate assay plate for 20 h, at 4° C. • Remove blocking reagent from assay plate. • Add 50 μl of HT29 lysate, incubate assay plate for 180 min, at 4° C. on an MTP shaker. • Wash assay plate with 2×200 μl TBS buffer per well. • Add 40 μl of 0.2% DMSO in kinase buffer to assay plate. • Add 40 μl sample solution (dissolved in kinase buffer—final conc. 22.5 μM). • Dissolve samples (1:3 ratio) in MTP. • Add 10 μl ATP dissolved in kinase buffer (200 μM) to samples (final conc. 40 μM ATP). Positive control: add 40 μl kinase buffer plus 10 μl 200 μM ATP. Negative control: add 40 μl kinase buffer plus 10 μl kinase buffer without ATP. […]

[2] = target: T2, Src (p60^c-src) (Homo sapiens, UniProt P12931); experiment: SRC-Inhibitor-Assay (time-resolved fluorescence kinase assay); type: biochemical; details: ATP 5 μM; enzyme pre-incubated with inhibitor 15 min at 15° C.
T2 construct: purchased Upstate (UBI)
Protocol: SRC-Inhibitor-Assay Parameters:
Assay buffer: 4 mM MgCl2 • 2 mM TCEP • 50 mM HEPES • 0.1% Tween 20 • pH 7.3
Inhibitor: max. 25 μM • min. 0.42 nM Material:
Eu-labelled phosphotyrosine antibody:—for Lck Cisbio Mab PT66-K, • for Src EG&G Wallac PT66 Eu-W1024 (all commercially available).
Peptides: Ro: NH2-A-E-E-E-I-Y-G-E-F-E-A-K-K-K-K-CONH2 (SEQ ID NO: 1), and Ja133-Ro: Ja133-G-Aminocaprylic acid-A-E-E-E-I-Y-G-E-F-E-A-K-K-K-K-CONH2 (SEQ ID NO: 2) wherein Ja133 is LightCycler-Red 640-N-hydroxy succinimide ester; whereby both peptides were synthesized by an optimized solid phase peptide synthesis protocol (Merrifield, Fed. Proc. Fed. Amer. Soc. Exp. Biol. 21 (1962) 412) on a Zinsser SMP350 peptide synthesizer. Shortly, the peptide was assembled on 160 mg (22.8 μmol scale) of a Rink-Linker modified polystyrene solid phase by repeatedly conjugating an twenty fold excess of aminoacids each protected by temporary piperidine labile Fmoc- and permanent acid labile tert-Bu-, BOC- and Otert-Bu-groups depending on the side chain function. The substrate sequence AEEEIYGEFEAKKKK (SEQ ID NO: 1) was N-terminal additionally mounted with the spacer amino acids Aminocaprylic acid and Glycin. After cleavage of the N-terminal temporary protecting group the still attached and protected peptide was labeled with a 1.5 fold amount of LightCycler-Red 640-N-hydroxy succinimide ester (purchased by Roche Diagnostics GmbH) and triethylamine. After 3 hrs. the resin was washed with Dimethylformamide and Isopropanol until the eluates of the blue resin got colourless. […] The substrate was finally isolated by a preparative reverse phase HPLC purification. The purification yielded 12.2 mg RP-HPLC single peak pure blue material (lyophilisate). The identity was proven by MALDI mass spectroscopy [2720.0].
Enzymes: Upstate Lck (p56^lck, active), Upstate Src (p60^c-src, partially purified) were purchased from UBI.
Time-resolved Fluorescence Assay: Reader: Perkin Elmer, Wallac Viktor 1420-040 multilabel counter; Liquid handling system: Beckman Coulter, Biomek 2000.
ATP, Tween 20, HEPES were purchased from Roche Molecular Biochemicals, MgCl2 and MnCl2 were purchased from Merck Eurolab, TCEP was purchased from Pierce, 384 Well low volume fluorescence plates was purchased from Falcon.
At first the enzyme is pre-incubated for 15 min. at 15° C. in aqueous solution with corresponding amounts of inhibitors according to this invention. Then the phosphorylation reaction is started by adding a reaction mixture, containing ATP, Peptide and PT66, and subsequent shaking. The proceeding of this reaction is immediately monitored using time resolved fluorescence spectroscopy in a suitable well plate reader.
The IC50-values can be obtained from the reaction rates by using a non-linear curve fit (Excelfit).

T2 sequence (P12931 whole entry): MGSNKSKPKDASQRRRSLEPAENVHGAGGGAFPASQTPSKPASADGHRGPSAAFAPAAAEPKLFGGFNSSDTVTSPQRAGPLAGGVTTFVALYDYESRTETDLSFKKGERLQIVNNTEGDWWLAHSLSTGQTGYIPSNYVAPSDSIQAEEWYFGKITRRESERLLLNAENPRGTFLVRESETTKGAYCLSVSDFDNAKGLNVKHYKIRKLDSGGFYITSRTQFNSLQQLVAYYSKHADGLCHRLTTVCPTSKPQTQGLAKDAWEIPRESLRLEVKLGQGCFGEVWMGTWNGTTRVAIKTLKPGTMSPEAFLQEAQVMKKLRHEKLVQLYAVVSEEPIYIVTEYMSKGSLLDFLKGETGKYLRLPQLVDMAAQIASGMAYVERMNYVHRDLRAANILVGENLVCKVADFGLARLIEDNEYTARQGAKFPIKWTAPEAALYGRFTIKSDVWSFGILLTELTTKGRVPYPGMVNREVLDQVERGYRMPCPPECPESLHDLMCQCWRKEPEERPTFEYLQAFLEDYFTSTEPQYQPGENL
T1 sequence (P08581 25-1390): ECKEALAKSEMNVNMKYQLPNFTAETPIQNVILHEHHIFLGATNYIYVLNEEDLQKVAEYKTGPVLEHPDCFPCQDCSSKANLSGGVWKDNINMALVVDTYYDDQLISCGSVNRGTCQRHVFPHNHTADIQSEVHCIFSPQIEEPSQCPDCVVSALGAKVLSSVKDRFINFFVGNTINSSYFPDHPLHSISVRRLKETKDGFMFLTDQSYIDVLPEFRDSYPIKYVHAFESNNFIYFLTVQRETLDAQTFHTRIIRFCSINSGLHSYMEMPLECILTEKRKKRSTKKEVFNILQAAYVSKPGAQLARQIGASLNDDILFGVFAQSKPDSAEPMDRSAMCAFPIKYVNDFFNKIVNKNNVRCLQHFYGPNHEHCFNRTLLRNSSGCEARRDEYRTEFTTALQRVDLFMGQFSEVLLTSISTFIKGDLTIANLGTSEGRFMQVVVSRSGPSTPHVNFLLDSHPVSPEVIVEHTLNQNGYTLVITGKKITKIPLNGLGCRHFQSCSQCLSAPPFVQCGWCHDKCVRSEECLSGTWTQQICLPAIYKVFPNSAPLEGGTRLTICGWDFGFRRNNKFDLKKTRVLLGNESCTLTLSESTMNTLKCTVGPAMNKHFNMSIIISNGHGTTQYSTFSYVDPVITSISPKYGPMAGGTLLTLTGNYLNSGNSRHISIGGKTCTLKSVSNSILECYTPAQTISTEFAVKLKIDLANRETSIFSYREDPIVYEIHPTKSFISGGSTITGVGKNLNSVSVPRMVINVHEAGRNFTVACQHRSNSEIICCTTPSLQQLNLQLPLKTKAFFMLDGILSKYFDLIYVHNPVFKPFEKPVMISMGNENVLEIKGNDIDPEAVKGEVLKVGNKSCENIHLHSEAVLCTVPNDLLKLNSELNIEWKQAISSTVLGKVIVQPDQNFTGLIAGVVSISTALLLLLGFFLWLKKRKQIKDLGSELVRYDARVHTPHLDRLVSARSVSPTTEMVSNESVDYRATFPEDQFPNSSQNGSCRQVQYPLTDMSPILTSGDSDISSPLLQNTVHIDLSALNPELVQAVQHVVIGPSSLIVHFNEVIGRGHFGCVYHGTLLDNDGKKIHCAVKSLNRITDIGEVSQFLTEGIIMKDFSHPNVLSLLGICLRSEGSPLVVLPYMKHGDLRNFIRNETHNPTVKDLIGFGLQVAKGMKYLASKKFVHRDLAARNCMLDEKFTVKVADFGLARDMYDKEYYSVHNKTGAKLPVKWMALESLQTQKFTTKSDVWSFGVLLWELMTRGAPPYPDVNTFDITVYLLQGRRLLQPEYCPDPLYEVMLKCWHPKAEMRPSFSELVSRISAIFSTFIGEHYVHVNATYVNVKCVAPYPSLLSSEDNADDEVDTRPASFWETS

SMILES	IC50 [1] [nM]	IC50 [2] [nM]
CN(C)c1ccc(Nc2nccc(-c3[nH]c(-c4c(Cl)cccc4Cl)nc3-c3cccc(Cl)c3)n2)cc1 [Example H2.1.3, 2-(2,6-dichlorophenyl)-4-(3-chlorophenyl)-5-(2-[4-dimethylaminophenyl-amino]pyrimidin-4-yl)-N—H-imidazole]	167	31
C[S+]([O-])c1ccc(Nc2nccc(-c3[nH]c(-c4c(Cl)cc(OCCO)cc4Cl)nc3-c3cccc(Cl)c3)n2)cc1 (stereo not drawn) [Example H2.3.2, 2-(2,6-dichloro-4-[2-hydroxyethoxy]phenyl)-4-(3-chlorophenyl)-5-(2-[4-methylsufinyl-phenylamino]pyrimidin-4-yl)-N—H-imidazole]		331
CCN(CC)CCOc1ccc(Nc2nccc(-c3[nH]c(-c4c(Cl)cccc4Cl)nc3-c3ccc(Cl)cc3)n2)cc1 [Example H3.1.1, 2-(2,6-dichlorophenyl)-4-(4-chlorophenyl)-5-(2-[4-(2-diethylaminoethoxy)-phenylamino]pyrimidin-4-yl)-N—H-imidazole]	609	24.4
C#Cc1cccc(-c2nc(-c3c(Cl)cccc3Cl)[nH]c2-c2ccnc(Nc3ccc(OCCO)cc3)n2)c1 [Example H4.1.2, 2-(2,6-dichlorophenyl)-4-(3-ethynylphenyl)-5-(2-[4-(2-hydroxyethoxy)-phenylamino]pyrimidin-4-yl)-N—H-imidazole]	90	33.3

Stronger by IC50 [2], values ahead:

IC50 [1] [nM]	IC50 [2] [nM]	SMILES
5	6.7	CCN(CC)CCOc1ccc(Nc2nccc(-c3[nH]c(-c4c(Cl)cccc4Cl)nc3-c3cccc(Br)c3)n2)cc1 [Example H1.1, 2-(2,6-dichlorophenyl)-4-(3-bromophenyl)-5-(2-[4-(2-diethylamino-ethoxy)phenylamino]pyrimidin-4-yl)-N—H-imidazole]
84	23.3	Clc1cccc(-c2nc(-c3c(Cl)cccc3Cl)[nH]c2-c2ccnc(Nc3ccc(N4CCOCC4)cc3)n2)c1 [Example H2.1.4, 2-(2,6-dichlorophenyl)-4-(3-chlorophenyl)-5-(2-[4-morpholinophenyl-amino]pyrimidin-4-yl)-N—H-imidazole]
4	0.5	CCN(CC)CCOc1ccc(Nc2nccc(-c3nc(-c4c(Cl)cc(CO)cc4Cl)[nH]c3-c3cccc(Cl)c3)n2)cc1 [Example H2.2.1, 2-(2,6-dichloro-4-hydroxymethylphenyl)-4-(3-chlorophenyl)-5-(2-[4-(2-diethylaminoethoxy)-phenylamino]pyrimidin-4-yl)-N—H-imidazole]
	1.6	CCN(CC)CCOc1ccc(Nc2nccc(-c3[nH]c(-c4c(Cl)cc(OCCO)cc4Cl)nc3-c3cccc(Cl)c3)n2)cc1 [Example H2.3.1, 2-(2,6-dichloro-4-[2-hydroxyethoxy]phenyl)-4-(3-chlorophenyl)-5-(2-[4-(2-diethylaminoethoxy)-phenylamino]pyrimidin-4-yl)-N—H-imidazole]
	6.7	O=S(=O)(NCCO)c1ccc(Nc2nccc(-c3[nH]c(-c4c(Cl)cc(OCCO)cc4Cl)nc3-c3cccc(Cl)c3)n2)cc1 [Example H2.3.3, 2-(2,6-dichloro-4-[2-hydroxyethoxy]phenyl)-4-(3-chlorophenyl)-5-(2-[4-(N-(2-hydroxyethyl)-ulfamoyl)phenylamino]pyrimidin-4-yl)-N—H-imidazole]
